Series [1] deals with HBEC-5i human brain endothelia monolayer (in vitro BBB model). The series can be described thus: In vitro BBB integrity assay (FD4 permeability after incubation). In kind it is cell-based. Here is the method:
After 24 h incubation with PPCs, cells were washed with PBS and DMEM:F12 medium without phenol red. […] Three independent replicates were performed.

Another series in a line: Serum stability. In kind it is in vitro ADME. Particulars: human serum diluted 1:1 (v/v) with HEPES buffer, 0.05 mM in 1:1 human serum / HEPES buffer (10 mM, NaCl 150 mM, pH 7.8), 37 °C, methanol precipitation, three independent replicates, read-out: t1/2 in human serum (converted).
The next series concerns ZIKV^BR. The series can be described thus: ZIKV inactivation assay (plaque assay on Vero cells). In kind it is cell-based, Zika virus. Particulars: 10^5 PFU ZIKV^BR pre-treated 1 h at 37 °C in the dark with 0.01–50 µM, titrated by plaque assay on Vero cells, three independent replicates. Here is the method:
After infection, cells were cultured for 7 days.
Three independent replicates were performed.

A further series has as its system HIV. On the set-up: method as in 2 sources, one per row (each row's own in cited_ref): ref [24] as printed in Table 2, ref [2] in supplement ||| ref 23 = [23]; PMID 34033716; doi:10.1021/acs.bioconjchem.1c00123; 23. Mendonça D.A. Bakker M. Cruz-Oliveira C. Neves V. Jiménez M.A. Defaus S. Cavaco M. Veiga A.S. Cadima-Couto I. Castanho M.A.R.B. Penetrating the Blood-Brain Barrier with New Peptide–Porphyrin Conju. Particulars: in vitro; values marked a; ref [24] as printed in Table 2, ref [2] in supplement; cited from earlier work.

Counter-ions that a name gives are not always drawn. Like-named read-outs stand apart in the source and are kept apart here. No end group written: not given here. Where only a bound is given, the exact number is not on record here.

Description for Serum stability: Next, 600 µL of conjugate/peptide solution were mixed (1:1 v/v) with 600 µL of human serum, to a 0.05 mM final concentration. The mixture was incubated at 37 °C and, at various time points, 50 µL (in triplicate) were taken and precipitated with 200 µL cold methanol. The samples were centrifuged at 13,000 rpm, 10 min, +4 °C. Afterwards, 50 µL of each supernatant were injected on an LC-20AD instrument (Shimadzu) equipped with a Luna C18 column (4.6 mm × 50 mm, 3 µm, Phenomenex, Torrance, CA, USA) and analysed using a 0–95% linear gradient of MeCN into 0.1% TFA in H2O over 15 min with 1 mL/min flow rate. PDA detection at 220 nm and 401 nm was used and the half-life times were calculated by peak area integration at 401 nm, the λmax of MP and PP. Controls included blank serum (25 µL each of 1:1 v/v serum + HEPES buffer, then precipitation with 200 µL cold methanol), untreated conjugate/peptide (25 µL of 0.1 mM stock in HEPES buffer + 25 µL HEPES buffer, then precipitation with 200 µL cold methanol), and a zero-time sample (200 µL cold methanol + 25 µL serum + 25 µL 0.1 mM conjugate/peptide stock); the conjugate/peptide was added last to avoid any contact with protease. Controls were analysed by LC and LC-MS as above. Three independent replicates were performed.

With `O=C(O)CN(CCOCCOCCN(CC(=O)O)CC(=O)O)CC(=O)O` [EGTA], in series [1], the “FD4 permeability post-translocation (Basolateral Content), BBB” value worked out at 29.6%.

With SGTQEEY-NH2 [P5, SGTQEEY-amide], the half-life at 0.05 mM in the series “Serum stability” (over 24 h, HPLC peak area (401 nm for porphyrins)) was 2.2 h.

Take VQQLTKRFSL-NH2 [P1]: in “Serum stability” (HPLC), the half-life at 0.05 mM is 0.733 h.

Broadly, the IC50 is the concentration at which inhibition is half-maximal. `CCC1=C(C)c2cc3[nH]c(cc4[nH]c(cc5nc(cc1n2)C(C)=C5CC)c(C)c4CCC(=O)O)c(CCC(=O)O)c3C` [MP, Mesoporphyrin IX dihydrochloride]: the 50% inhibitory concentration (IC50) in the series on ZIKV^BR and in the series on HIV was over 50 µM each time.

Turning to `C=CC1=C(C)c2cc3[nH]c(cc4nc(cc5[nH]c(cc1n2)c(C)c5CCC(=O)O)C(CCC(=O)O)=C4C)c(C)c3C=C` [PP, protoporphyrin IX], the “FD4 permeability post-translocation (Basolateral Content), BBB” value in series [1] (HBEC-5i monolayer after 24 h incubation with 10 µM compound, 4 kDa FITC-dextran apical, 2 h, fluorescence, three independent replicates, black bars Figure 1B, control (cells only) 10.3%) is on record as 24.7%. The “increase in FD4 permeability over control values, BBB” value in series [1] (HBEC-5i monolayer, 24.7% versus control 10.3%) came out at 2.5 fold. Moreover, the IC50 in the series on HIV is over 50 µM.

Source of the values: PMC9032516, “Targeting Zika Virus with New Brain- and Placenta-Crossing Peptide–Porphyrin Conjugates” (Pharmaceutics, 2022).
